Experimental data as given in patent publication US12454525B2, “IL4I1 inhibitors and methods of use” (Merck Sharp & Dohme LLC, priority 2020, dated 2025).

Each compound was assayed against T1, recombinant IL4I1 (Homo sapiens, UniProt Q96RQ9) (assay: IL4I1 Enzymatic Assay (Amplex Red/HRP coupled H2O2 detection)). Conditions: 240 min; four-hour pre-incubation with compound; 1 nM IL4I1, 1 mM each Phe/Tyr/Trp; ten-point titration; fluorescence readout; read-out: Potency EC50 (nM) (240 min).
T1 construct: purchased R&D Systems 5684-AO-020
T1 sequence (Q96RQ9 22-567): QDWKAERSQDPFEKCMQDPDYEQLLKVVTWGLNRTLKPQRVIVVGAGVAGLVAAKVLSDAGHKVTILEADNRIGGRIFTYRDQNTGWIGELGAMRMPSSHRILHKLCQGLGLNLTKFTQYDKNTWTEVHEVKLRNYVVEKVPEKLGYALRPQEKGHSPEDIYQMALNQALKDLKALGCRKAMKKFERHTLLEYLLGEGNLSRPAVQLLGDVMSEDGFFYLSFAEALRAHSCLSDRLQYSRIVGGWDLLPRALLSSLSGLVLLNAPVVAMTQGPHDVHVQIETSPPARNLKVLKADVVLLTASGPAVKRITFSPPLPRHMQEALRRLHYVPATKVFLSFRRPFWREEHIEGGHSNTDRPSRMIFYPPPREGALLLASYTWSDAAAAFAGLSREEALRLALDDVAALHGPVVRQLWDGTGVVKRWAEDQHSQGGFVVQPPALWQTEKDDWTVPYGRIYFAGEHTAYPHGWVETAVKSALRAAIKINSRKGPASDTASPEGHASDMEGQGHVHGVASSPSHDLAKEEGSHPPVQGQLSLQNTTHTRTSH
Assay type: biochemical
Description: Interleukin 4 inducible protein 1 (IL4I1) is an L-amino oxidase that catalyzes the oxidation of aromatic residues (Phe, Trp and Tyr): L-amino acid+H2O+O2→2-oxo acid+NH3+H2O2. Equal molar of H2O2 and the corresponding alpha-ketoacid are produced when IL4I1 and substrate are added. In this assay, the hydrogen peroxide generated by IL4I1 is then detected through a coupled reaction with Amplex Red (10-acetyl-3,7-dihydroxyphenoxazine) and […] (HRP) to produce Resorufin product that could be detected in the form of fluorescence signals. The assessment of the inhibitory effect of small molecules (EC50) on IL4I1 is measured by the effectiveness of the compounds to inhibit the production of H2O2.
Using this assay, the potency (EC50) of each compound was determined from a ten-point (1:3 serial dilution) titration curve using the following outlined procedure. To each well of a black flat-bottom Greiner (Cat #781076) 384 well-plate, 25 nL of compound (0.1% DMSO in final assay volume of 25 μL) was dispensed, followed by the addition of 12.5 μL of 1x assay buffer (50 mM Hepes 7.0 and 0.005% Tween20 (Sigma, Cat #P8341; low peroxide grade)) containing 2 nM of recombinant IL4I1 (R&D Systems, Cat #5684-AO-020). Plates were placed in an ambient temperature humidified chamber for a four-hour pre-incubation with compound. Subsequently, each reaction was initiated by the addition of 12.5 μL 1x assay buffer containing 2 mM of each aromatic amino acids (Phe/Tyr/Trp), 0.1 mM Amplex Red and 2 U/mL of HRP. The final reaction in each well of 25 μL consists of 1 nM of IL411, 1 mM of each residues (Phe, Tyr and Trp), 0.05 mM Amplex Red and 1 U/mL of HRP. It should be noted that the concentrations of Amplex Red and HRP used here are in excess such that the conversion of H2O2 to Resorufin product occurs instantaneously and non-rate limiting. Reactions were allowed to proceed for 120 minutes followed by fluorescence readout on a Spectramax with the following set parameters: 544 nm excitation/590 nm emission, 570 nm cutoff (EnVision is an alternative reader). Dose-response curves were generated by plotting percent effect (% product conversion; Y-axis) vs. Log10 compound concentrations (X-axis). EC50 values were calculated using a non-linear regression, four-parameters sigmoidal dose-response model and are shown in Table 16.
COc1ccccc1Cn1c(=O)[nH]c2c(C)cccc21 [Example 92, 1-(2-methoxybenzyl)-4-methyl-1,3-dihydro-2H-benzo[d]imidazol-2-one] was tested, and the EC50 was 396 nM. For COc1ccccc1Cn1c(=O)[nH]c2cccc(C)c21 [Example 91, 1-(2-methoxybenzyl)-7-methyl-1,3-dihydro-2H-benzo[d]imidazol-2-one], the EC50 was 1340 nM. Compound CC(=O)NCc1ccc(Cn2c(=O)n(C(F)F)c3ccccc32)cc1 [Example 76, N-(4-((3-(difluoromethyl)-2-oxo-2,3-dihydro-1H-benzo[d]imidazol-1-yl)methyl)benzyl)acetamide] has an EC50 of 9 nM. In the case of O=C(NCC(F)(F)F)c1cccc(Cn2c(=O)[nH]c3ccccc32)c1 [Example 101, 3-((2-oxo-2,3-dihydro-1H-benzo[d]imidazol-1-yl)methyl)-N-(2,2,2-trifluoroethyl)benzamide], the EC50 is reported as 90 nM. For O=c1[nH]c2sccc2n1Cc1ccccc1 [Example 112, 1-benzyl-1,3-dihydro-2H-thieno[2,3-d]imidazol-2-one], the EC50 was 1320 nM. With O=c1n(Cc2ccccc2)c2ccccc2n1C(F)F [Example 78, 1-benzyl-3-(difluoromethyl)-1,3-dihydro-2H-benzo[d]imidazol-2-one] the EC50 was 443 nM. O=c1[nH]c2ccccc2n1CCC1CCCO1 (stereo not shown) [Example 60, 1-[2-(oxolan-2-yl)ethyl]-1,3-dihydro-2H-benzimidazol-2-one] showed an EC50 of 8660 nM. In the case of O=C(NC1CC1)c1ccc(Cn2c(=O)[nH]c3ccccc32)s1 [Example 14], the EC50 is reported as 2 nM. Cc1cc(Cn2c(=O)[nH]c3ccccc32)ccc1Cc1nnco1 [Example 54, 1-(4-((1,3,4-oxadiazol-2-yl)methyl)-3-methylbenzyl)-1,3-dihydro-2H-benzo[d]imidazol-2-one] was tested, and the EC50 was 7 nM. CC(=O)NCc1ccc(Cn2c(=O)[nH]c3ccccc32)cc1 [Example 11, N-(4-((2-oxo-2,3-dihydro-1H-benzo[d]imidazol-1-yl)methyl)benzyl)acetamide] showed an EC50 of 6 nM. For C[C@@H]1NC(=O)O[C@H]1c1cccc(Cn2c(=O)[nH]c3ccccc32)c1 [Example 31, 1-({3-[(4S,5S)-4-methyl-2-oxo-1,3-oxazolidin-5-yl]phenyl}methyl)-1,3-dihydro-2H-benzimidazol-2-one], the EC50 was 15 nM. Cc1ccc(C2CC2Cn2c(=O)[nH]c3ccccc32)nc1 (single isomer, unassigned) [Example 111, 1-((2-(5-methylpyridin-2-yl)cyclopropyl)methyl)-1,3-dihydro-2H-benzo[d]imidazol-2-one] gave an EC50 of 4 nM. Work on O=c1[nH]c2ccc(F)cc2n1Cc1ccc2c(c1)CCC2 [Example 70, 1-((2,3-dihydro-1H-inden-5-yl)methyl)-6-fluoro-1,3-dihydro-2H-benzo[d]imidazol-2-one] yielded an EC50 of 14 nM. Work on O=c1[nH]c2ccccc2n1Cc1cccc(-c2nnco2)c1 [Example 27, 1-(3-(1,3,4-oxadiazol-2-yl)benzyl)-1,3-dihydro-2H-benzo[d]imidazol-2-one] yielded an EC50 of 7 nM. In the case of N#Cc1cccc(NC(=O)Cc2cccc(Cn3c(=O)[nH]c4ccccc43)c2)c1 [Example 104, N-(3-cyanophenyl)-2-(3-((2-oxo-2,3-dihydro-1H-benzo[d]imidazol-1-yl)methyl)phenyl)acetamide], the EC50 is reported as 5 nM. For O=C1CCCN1Cc1ccc(Cn2c(=O)[nH]c3ccccc32)cn1 [Example 41, 1-((6-((2-oxopyrrolidin-1-yl)methyl)pyridin-3-yl)methyl)-1,3-dihydro-2H-benzo[d]imidazol-2-one], the EC50 was 127 nM. Work on O=c1[nH]c2c(F)cccc2n1Cc1ccccc1 [Example 68, 1-benzyl-4-fluoro-1,3-dihydro-2H-benzo[d]imidazol-2-one] yielded an EC50 of 1390 nM. For COc1cc(CNC(C)=O)ccc1Cn1c(=O)[nH]c2ccccc21 [Example 5, N-(3-methoxy-4-((2-oxo-2,3-dihydro-1H-benzo[d]imidazol-1-yl)methyl)benzyl)acetamide], the EC50 was 15 nM. In the case of COC1(C(=O)NCc2ccc(Cn3c(=O)[nH]c4ccccc43)cc2)CC1 [Example 96, 1-methoxy-N-(4-((2-oxo-2,3-dihydro-1H-benzo[d]imidazol-1-yl)methyl)benzyl)cyclopropane-1-carboxamide], the EC50 is reported as 21 nM. For CC(c1ccccc1)n1c(=O)[nH]c2ccccc21 (stereo not shown) [Example 87, 1-(1-phenylethyl)-1,3-dihydro-2H-benzo[d]imidazol-2-one], the EC50 was 8900 nM. CC(C)C1CC(Cn2c(=O)[nH]c3ccccc32)C1 (stereo not shown) [Example 57, 1-{[3-(propan-2-yl)cyclobutyl]methyl}-1,3-dihydro-2H-benzimidazol-2-one] gave an EC50 of 3040 nM. With CC(=O)NCc1ccc(Cn2c(=O)[nH]c3ccccc32)cc1C [Example 49, N-(2-methyl-4-((2-oxo-2,3-dihydro-1H-benzo[d]imidazol-1-yl)methyl)benzyl)acetamide] the EC50 was 10 nM. O=c1[nH]c2ccccc2n1Cc1ccc(CN2CCCS2(=O)=O)cc1 [Example 26, 1-(4-((1,1-dioxidoisothiazolidin-2-yl)methyl)benzyl)-1,3-dihydro-2H-benzo[d]imidazol-2-one] was tested, and the EC50 was 6 nM. With O=C1OCCN1Cc1ccc(Cn2c(=O)[nH]c3ccccc32)cc1 [Example 74, 3-(4-((2-oxo-2,3-dihydro-1H-benzo[d]imidazol-1-yl)methyl)benzyl) oxazolidin-2-one] the EC50 was 7 nM. In the case of O=C1CCCN1Cc1ccc(Cn2c(=O)[nH]c3ccccc32)cc1 [Example 1, 1-(4-((2-oxopyrrolidin-1-yl)methyl)benzyl)-1,3-dihydro-2H-benzo[d]imidazol-2-one], the EC50 is reported as 13 nM. Compound O=c1[nH]c2ccccc2n1Cc1ccc2c(c1)CCN2 [Example 52, 1-(indolin-5-ylmethyl)-1,3-dihydro-2H-benzo[d]imidazol-2-one] has an EC50 of 18 nM. O=C(Cc1cccc(Cn2c(=O)[nH]c3ccccc32)c1)Nc1cccnc1 [Example 103, 2-(3-((2-oxo-2,3-dihydro-1H-benzo[d]imidazol-1-yl)methyl)phenyl)-N-(pyridin-3-yl)acetamide] showed an EC50 of 4 nM. With N#CC1(Cc2ncc(Cn3c(=O)[nH]c4ccccc43)cc2Cl)CCC1 [Example 79, 1-((3-chloro-5-((2-oxo-2,3-dihydro-1H-benzo[d]imidazol-1-yl)methyl)pyridin-2-yl)methyl)cyclobutane-1-carbonitrile] the EC50 was 113 nM. Compound O=C1C=CCN1Cc1ccc(Cn2c(=O)[nH]c3ccccc32)cc1 [Example 2, 1-(4-((2-oxo-2,5-dihydro-1H-pyrrol-1-yl)methyl)benzyl)-1,3-dihydro-2H-benzo[d]imidazol-2-one] has an EC50 of 13 nM. For O=c1[nH]c2ccccc2n1Cc1cc(C(F)F)cc(C(F)F)c1 [Example 30, 1-{[3,5-bis(difluoromethyl)phenyl]methyl}-1,3-dihydro-2H-benzimidazol-2-one], the EC50 was 9 nM. O=c1[nH]c2cc(Cl)ccc2n1Cc1ccc(Cc2nnco2)cc1 [Example 100] showed an EC50 of 784 nM. With CN(Cc1ccc(Cn2c(=O)[nH]c3ccccc32)cc1)S(=O)(=O)C1CC1 [Example 75, N-methyl-N-(4-((2-oxo-2,3-dihydro-1H-benzo[d]imidazol-1-yl)methyl)benzyl)cyclopropanesulfonamide] the EC50 was 16 nM. Work on O=c1[nH]c2ccccc2n1Cc1ccc(CN2CCOCS2(=O)=O)cc1 [Example 20, 1-(4-((3,3-dioxido-1,3,4-oxathiazinan-4-yl)methyl)benzyl)-1,3-dihydro-2H-benzo[d]imidazol-2-one] yielded an EC50 of 7 nM. In the case of O=c1[nH]c2ccccc2n1Cc1ccc(Cn2ccnn2)cc1 [Example 82, 1-(4-((1H-1,2,3-triazol-1-yl)methyl)benzyl)-1H-benzo[d]imidazol-2 (3H)-one], the EC50 is reported as 48 nM.
